In patent publication US20180354962A1, “[{[2,3-Dihydro-1H-inden-1-yl]amino}-2H,3H-furo[3,2-b]pyridin-3-yl]acetic acids, pharmaceutical compositions and uses thereof” (Boehringer Ingelheim International GmbH, priority 2015, published 2018):
≈ marks a conversion by molar mass, not a printed value.

Assays:
[1] = Aqueous solubility from DMSO stock, LC-UV; assay type: physicochemical; details: aqueous buffer, kinetic from dmso stock; buffer pH 2.2, 24 h shaking, 2.5% DMSO
Procedure: The aqueous solubility of the compounds of the invention is determined by comparing the amount dissolved in buffer to the amount in an acetonitrile/water (1/1) solution. Starting from a 10 mM DMSO stock solution aliquots are diluted with acetonitrile/water (1/1) or buffer, respectively. After 24 h of shaking, the solutions are filtrated and analyzed by LC-UV. The amount dissolved in buffer is compared to the amount in the acetonitrile solution. Solubility is usually being measured from 0.001 to 0.125 mg/mL at a DMSO concentration of 2.5%. If more than 90% of the compound is dissolved in buffer, the value is marked with “>”.

human GPR40 receptor = human GPR40 receptor (Homo sapiens, UniProt O14842); test: IP1 accumulation measurements using the IPOne assay system; assay type: cell-based; details: 1321N1 cells stably expressing human GPR40; 1 h stimulation at 37° C.
Procedure: IP1 accumulation measurements using the IPOne assay system—1321N1 cells stably expressing human GPR40 receptor (Euroscreen, Belgium) are seeded 24 h before the assay in white 384-well plates in culture medium containing 10% FCS, 1% Na-Pyruvate and 400 μg/mL G418. IP1 is assayed according to the manufacturer's description (Cisbio Bioassays, France). In brief, the assay is started by substitution of the culture medium by stimulation buffer (Hepes 10 mM, CaCl2 1 mM, MgCl2 0.5 mM, KCl 4.2 mM, NaCl 146 mM, glucose 5.5 mM and LiCl 50 mM, pH 7.4). Cells are stimulated for 1 h at 37° C., 5% CO2 by addition of the compounds that are diluted in stimulation buffer containing LiCl. Assays are stopped by adding HTRF-conjugates (IP1-d2 and Anti-IP1 cryptate Tb) and lysis buffer, provided by the manufacturer. After an incubation time of 1 h at room temperature plates are measured using an EnVision™, Perkin Elmer. The obtained fluorescence ratios at 665/615 […] are then used to calculate the pEC50 values using Assay Explorer 3.3 Software (Accelrys, Inc.) by interpolation using an IP1 reference curve and subsequent sigmoidal curve fitting allowing for a variable hill slope.

[2] = target: T1, cytochrome P450 2C9-isoenzyme (Homo sapiens, UniProt P11712); test: Inhibition of CYP-2C9 (diclofenac hydroxylation, human liver microsomes); assay type: in vitro ADME; details: human liver microsomes 0.1 mg/mL, diclofenac 10 μM, 37° C.
T1 construct: is assayed at 37° C. with human liver microsomes; from tissue; host or cells: human liver microsomes
Procedure: All assays are carried out on a robotic system in 96 well plates. The final incubation volume contains TRIS buffer (0.1 M), MgCl2 (5 mM), human liver microsomes (0.1 mg/mL), diclofenac (10 μM) and the test compound at five different concentrations or no compound (high control) in duplicate (e.g. highest concentration 10-50 μM with subsequent serial 1:4 dilutions). Following a short preincubation period, reactions are started with the cofactor (NADPH, 1 mM) and stopped by cooling the incubation down to 8° C. and subsequently by addition of one volume of acetonitrile. An internal standard solution—the stable isotope 13C6-hydroxydiclofenac—is added after quenching of incubations. Peak area analyte (=metabolite formed) and internal standard is determined by LC-MS/MS. The resulting peak area ratio analyte to internal standard in these incubations is compared to a control activity containing no test compound. Within each of the assay runs, the IC50 of a positive control inhibitor (sulfaphenazole) is determined. Experimental IC50 values are calculated by least square regression according to the following equation: % control activity=(100% control activity/(1+(I/IC50)S)))−B with I=inhibitor concentration S=slope factor B=background activity (lower plateau of the inhibition curve) If the inhibition of the reaction is already >50% at the lowest concentration of the test compound, the IC50 is assigned “<lowest concentration tested” (usually <0.4 μM). If the inhibition of the reaction is still <50% at the highest concentration of the test compound, the IC50 is assigned “>highest concentration tested” (usually >50 μM).

[3] = target: T2, cytochrome P450 2C8-isoenzyme (Homo sapiens, UniProt P10632); test: Inhibition of CYP-2C8 (amodiaquine deethylation, human liver microsomes); assay type: in vitro ADME; details: human liver microsomes 0.05 mg/mL, amodiaquine 1 μM, 37° C.
T2 construct: is assayed at 37° C. with human liver microsomes; from tissue; host or cells: human liver microsomes
T2 sequence (P10632 1-490): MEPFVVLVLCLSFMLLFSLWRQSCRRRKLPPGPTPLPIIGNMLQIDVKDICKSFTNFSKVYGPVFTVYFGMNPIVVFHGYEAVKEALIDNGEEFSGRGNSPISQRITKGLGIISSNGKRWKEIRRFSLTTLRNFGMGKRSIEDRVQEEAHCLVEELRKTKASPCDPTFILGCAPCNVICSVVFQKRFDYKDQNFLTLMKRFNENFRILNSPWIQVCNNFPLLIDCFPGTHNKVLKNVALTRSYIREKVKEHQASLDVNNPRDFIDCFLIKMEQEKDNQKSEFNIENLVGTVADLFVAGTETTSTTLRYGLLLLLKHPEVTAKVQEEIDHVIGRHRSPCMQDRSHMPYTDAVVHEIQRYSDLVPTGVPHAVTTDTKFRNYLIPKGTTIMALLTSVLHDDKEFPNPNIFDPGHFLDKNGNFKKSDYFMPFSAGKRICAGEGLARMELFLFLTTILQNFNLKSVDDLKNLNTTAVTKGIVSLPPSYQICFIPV
Procedure: All assays are carried out on a robotic system in 96 well plates. The final incubation volume contains TRIS buffer (0.1 M), MgCl2 (5 mM), human liver microsomes (0.05 mg/mL), amodiaquine (1 μM) and the test compound at five different concentrations or no compound (high control) in duplicate (e.g. highest concentration 10-50 μM with subsequent serial 1:4 dilutions). Following a short preincubation period, reactions are started with the cofactor (NADPH, 1 mM) and stopped by cooling the incubation down to 8° C. and subsequently by addition of one volume of acetonitrile. An internal standard solution—the stable isotope d5-desethylamodiaquine—is added after quenching of incubations. Peak area analyte (=metabolite formed) and internal standard is determined by LC-MS/MS. The resulting peak area ratio analyte to internal standard in these incubations is compared to a control activity containing no test compound. Within each of the assay runs, the IC50 of a positive control inhibitor (Montelukast) is determined. Experimental IC50 values are calculated by least square regression according to the following equation: % control activity=(100% control activity/(1+(I/IC50)S))−B with I=inhibitor concentration; S=slope factor; B=background activity (lower plateau of the inhibition curve) If the inhibition of the reaction is already >50% at the lowest concentration of the test compound, the IC50 is assigned “<lowest concentration tested” (usually <0.4 μM). If the inhibition of the reaction is still <50% at the highest concentration of the test compound, the IC50 is assigned “>highest concentration tested” (usually >50 μM).

[4] = Chemical stability (degradation kinetics) in acidic aqueous media, HPLC; assay type: physicochemical; details: acetonitrile/0.1 M aqueous HCl (2:3), pH ca. 1.2, 37° C.
Procedure: Degradation kinetics is used to simulate chemical stability of compounds in the acidic part of the gastro intestinal tract. […] Their application as medical drugs to treat human diseases is therefore less restricted and troublesome. The chemical stability of the compounds of the invention at pH value of ca. 1.2 is determined as follows: Compound is dissolved in an HPLC vial either in a mixture of acetonitrile/0.1 M aqueous HCl (2:3; pH ca. 1.2) or in a mixture of acetonitrile/McIlvaine buffer pH 7.4 (2:3) to get a concentration of approximately 0.25 mg/ml. The vial was then transferred into an HPLC autosampler system and maintained at a temperature of 37° C. A first sample is taken and injected immediately into a standard HPLC system with a UV DAD detector. Further samples are injected after 2, 4, 6, 8 and 10 hours. Degradation of the compound is measured by determining the recovery rate of compound [%] for each injection using an HPLC standard gradient method. Therefore the peak area of the main peak for the first injection (AUt0) is determined and set as 100%. Peak area of the main peak is determined also for the further injections (AUtn, n=2, 4, 6, 8, 10) and expressed as fraction of […][%].

T1 sequence (P11712 whole entry): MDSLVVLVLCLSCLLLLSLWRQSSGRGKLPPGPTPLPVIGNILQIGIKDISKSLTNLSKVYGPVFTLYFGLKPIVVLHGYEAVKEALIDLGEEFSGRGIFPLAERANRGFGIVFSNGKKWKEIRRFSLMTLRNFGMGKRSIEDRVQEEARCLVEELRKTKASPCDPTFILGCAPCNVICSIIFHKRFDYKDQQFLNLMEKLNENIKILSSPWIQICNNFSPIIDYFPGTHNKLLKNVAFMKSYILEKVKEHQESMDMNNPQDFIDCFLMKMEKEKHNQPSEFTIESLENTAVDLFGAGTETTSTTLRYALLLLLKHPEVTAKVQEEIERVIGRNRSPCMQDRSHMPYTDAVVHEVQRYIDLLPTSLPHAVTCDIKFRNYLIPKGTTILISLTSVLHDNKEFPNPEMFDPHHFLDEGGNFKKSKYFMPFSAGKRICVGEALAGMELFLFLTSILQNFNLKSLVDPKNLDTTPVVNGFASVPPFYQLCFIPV
Chain of human GPR40 receptor (O14842 whole entry): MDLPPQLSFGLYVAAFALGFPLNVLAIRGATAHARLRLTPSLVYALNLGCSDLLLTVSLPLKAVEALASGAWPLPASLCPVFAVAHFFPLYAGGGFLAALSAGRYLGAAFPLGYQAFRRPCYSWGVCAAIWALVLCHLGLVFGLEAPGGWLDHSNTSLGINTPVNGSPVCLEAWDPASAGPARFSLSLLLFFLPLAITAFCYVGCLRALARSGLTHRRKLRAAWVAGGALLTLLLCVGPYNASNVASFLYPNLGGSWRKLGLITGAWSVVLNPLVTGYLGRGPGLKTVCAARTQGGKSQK

| Compound | solubility at 24 h [1] | EC50 (human GPR40 receptor) | IC50 [2] | IC50 [3] | Amount of degradation after 2 h [4] |
| --- | --- | --- | --- | --- | --- |
| Cc1cc(OCCC(C)(C)O)cc(C)c1-c1cccc2c1CC[C@H]2Nc1cnc2c(c1)OC[C@H]2CC(=O)O [Example 4, 2-[(3S)-6-{[(1R)-4-[4-(3-Hydroxy-3-methylbutoxy)-2,6-dimethylphenyl]-2,3-dihydro-1H-inden-1-yl]amino}-2H,3H-furo[3,2-b]pyridin-3-yl]acetic acid] | 57 µg/mL (≈ 110 µM) | 0.064 µM | > 50 µM | 43 µM | <0.5% |
| Cc1cc(-c2nnn(C)n2)cc(C)c1-c1ccc(F)c2c1CC[C@H]2Oc1ccc2c(c1)OC[C@H]2CC(=O)O [95 (WO 2013/144097), reference compound] | < 1 µg/mL |  | 19 µM | 9 µM | 4% |
| Cc1cc(OCCCS(C)(=O)=O)cc(C)c1-c1cccc2c1CC[C@H]2Oc1ccc2c(c1)OC[C@H]2CC(=O)O [2 (WO 2013/144098), reference compound] |  |  |  | 19 µM | 94% |
| Cc1cc(OCCC(C)(C)O)cc(C)c1-c1ccc(F)c2c1CC[C@H]2Oc1ccc2c(c1)OC[C@H]2CC(=O)O [4 (WO 2013/144097), reference compound] | < 1 µg/mL |  | 21 µM | 6 µM | 13% |
| Cc1cc(-c2nnn(C)n2)cc(C)c1-c1ccc(F)c2c1CC[C@H]2Nc1cnc2c(c1)OC[C@H]2CC(=O)O [Example 5, 2-[(3S)-6-{[(1R)-4-[2,6-Dimethyl-4-(2-methyl-2H-1,2,3,4-tetrazol-5-yl)phenyl]-7-fluoro-2,3-dihydro-1H-inden-1-yl]amino}-2H,3H-furo[3,2-b]pyridin-3-yl]acetic acid] | 7 µg/mL (≈ 13.6 µM) | 0.026 µM | 48 µM | 22 µM | 0.4% |
| Cc1cc(OCCC(C)(C)O)cc(C)c1-c1ccc(F)c2c1CC[C@H]2Nc1cnc2c(c1)OC[C@H]2CC(=O)O [Example 2, 2-[(3S)-6-{[(1R)-7-Fluoro-4-[4-(3-hydroxy-3-methylbutoxy)-2,6-dimethylphenyl]-2,3-dihydro-1H-inden-1-yl]amino}-2H,3H-furo[3,2-b]pyridin-3-yl]acetic acid] | 60 µg/mL (≈ 112 µM) | 0.061 µM | > 50 µM | 32 µM | 0.2% |
| Cc1cc(-c2nnn(C)n2)cc(C)c1-c1cccc2c1CC[C@H]2Nc1cnc2c(c1)OC[C@H]2CC(=O)O [Example 3, 2-[(3S)-6-{[(1R)-4-[2,6-Dimethyl-4-(2-methyl-2H-1,2,3,4-tetrazol-5-yl)phenyl]-2,3-dihydro-1H-inden-1-yl]amino}-2H,3H-furo[3,2-b]pyridin-3-yl]acetic acid] | 6 µg/mL (≈ 12.1 µM) | 0.042 µM | > 50 µM | 29 µM | <0.5% |
| Cc1nc(-c2cc(C)c(-c3cccc4c3CC[C@H]4Nc3cnc4c(c3)OCC4CC(=O)O)c(C)c2)no1 (stereo partly drawn) [Example 132, 2-(6-{[(1R)-4-[2,6-Dimethyl-4-(5-methyl-1,2,4-oxadiazol-3-yl)phenyl]-2,3-dihydro-1H-inden-1-yl]amino}-2H,3H-furo[3,2-b]pyridin-3-yl)acetic acid] | 3 µg/mL (≈ 6.04 µM) | 0.036 µM | > 50 µM | 23 µM |  |
| Cc1cc(OCC(C)(C)C#N)cc(C)c1-c1cccc2c1CC[C@H]2Nc1cnc2c(c1)OCC2CC(=O)O (stereo partly drawn) [Example 123, 2-(6-{[(1R)-4-[4-(2-Cyano-2,2-dimethylethoxy)-2,6-dimethylphenyl]-2,3-dihydro-1H-inden-1-yl]amino}-2H,3H-furo[3,2-b]pyridin-3-yl)acetic acid] | < 1 µg/mL | 0.153 µM | 28 µM | 9 µM |  |
| CCc1cccc(CC)c1-c1cccc2c1CC[C@H]2Nc1cnc2c(c1)OCC2CC(=O)O (stereo partly drawn) [Example 124, 2-(6-{[(1R)-4-(2,6-Diethylphenyl)-2,3-dihydro-1H-inden-1-yl]amino}-2H,3H-furo[3,2-b]pyridin-3-yl)acetic acid] | 6 µg/mL (≈ 13.6 µM) | 0.075 µM | 49 µM | 9 µM |  |
| COc1cc(F)c(-c2cccc3c2CC[C@H]3Nc2cnc3c(c2)OCC3CC(=O)O)c(F)c1 (stereo partly drawn) [Example 127, 2-(6-{[(1R)-4-(2,6-Difluoro-4-methoxyphenyl)-2,3-dihydro-1H-inden-1-yl]amino}-2H,3H-furo[3,2-b]pyridin-3-yl)acetic acid] | 30 µg/mL (≈ 66.3 µM) | 1.24 µM | > 50 µM | 27 µM |  |
